This note sets out measurements from US20230391778A1, “INDOLIN-2-ONE OR PYRROLO -PYRIDIN -2 -ONE DERIVATIVES” (Hoffmann-La Roche Inc., priority 2014, published 2023).

pIC50: −log10 of the molar value.

The experiment has as its target T1, mouse ENT-1 transporter (Mus musculus, UniProt Q9JIM1).
T1 construct: expressed in transfected cells
T1 sequence (Q9JIM1 1-460): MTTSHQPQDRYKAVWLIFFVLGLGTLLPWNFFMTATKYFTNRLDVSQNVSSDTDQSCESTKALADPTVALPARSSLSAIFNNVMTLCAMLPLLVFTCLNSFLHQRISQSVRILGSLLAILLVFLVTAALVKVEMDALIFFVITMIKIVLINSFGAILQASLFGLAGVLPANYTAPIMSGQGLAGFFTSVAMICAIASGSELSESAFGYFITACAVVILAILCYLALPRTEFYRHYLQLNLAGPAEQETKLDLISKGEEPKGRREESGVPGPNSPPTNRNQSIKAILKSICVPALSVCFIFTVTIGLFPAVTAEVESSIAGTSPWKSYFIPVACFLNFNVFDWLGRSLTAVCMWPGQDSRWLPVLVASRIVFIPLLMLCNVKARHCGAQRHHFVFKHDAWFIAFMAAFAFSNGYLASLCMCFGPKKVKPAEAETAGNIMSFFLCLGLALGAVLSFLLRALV
The experiment can be described thus: Measure of adenosine transport activity (ENT1 adenosine uptake inhibition). Format: cell-based. As to conditions: stable cells expressing mouse ENT-1, [2,8-3H]-adenosine 6 nM, 20 min. Here is the method:
To measure adenosine transport activity of ENT-1 mammalian cells, stable cells expressing the mouse ENT-1 transporter were plated on day 1 in 96-well culture plates at the density of 60,000 cells/well, in complete DMEM/F12 medium supplemented with glutamax, 10% FBS and 10 μg/ml puromycin. On day 2, the medium was aspirated and the cells were washed twice with uptake buffer (10 mM Hepes-Tris, pH 7.4 containing 150 mM NaCl, 1 mM CaCl2), 2.5 mM KCl, 2.5 mM MgSO4, 10 mM D-glucose) (UB). For inhibition experiments, cells were then incubated at RT with various concentrations of compounds with 1% DMSO final. Non-specific uptake was defined in the presence of 10 μM S-(4-Nitrobenzyl)-6-thioinosine (NBTI, Sigma Cat #N2255).
The plates were then incubated for 20 min with gentle shaking and the reaction was stopped by aspiration of the mixture and washing (three times) with ice-cold UB. The cells were lysed by the addition of scintillation liquid, shaken 3 hours and the radioactivity in the cells was estimated using a microplates scintillation counter (TopCount NXT, Packard).
By pIC50 is commonly meant the negative decadic logarithm of the IC50, by convention in mol/L. Lower therefore signals a large IC50. For “3,3-dimethyl-6-(2-methylpyrimidin-5-yl)-1-(1-(2,2,2-trifluoroethyl)-1H-pyrazol-3-yl)indolin-2-one [Example 139]”, the pIC50 is 6.85.
Under “5-(3,3-dimethyl-1-(5-methylpyrimidin-2-yl)-2-oxoindolin-6-yl)-2-methylpyrimidine 1-oxide [Example 101]” stands 5.62.
Under `Cc1ncc(-c2ccc3c(c2)N(c2ccc(C)[n+]([O-])n2)C(=O)C3(C)C)cn1` (single isomer, unassigned) [Example 106, 3-(3,3-dimethyl-6-(2-methylpyrimidin-5-yl)-2-oxoindolin-1-yl)-6-methylpyridazine 1-oxide] stands 6.32; under `Cc1ncc(-c2ccc3c(c2)N(c2cccnc2)C(=O)C3(C)C)cn1` [Example 3, 3,3-Dimethyl-6-(2-methylpyrimidin-5-yl)-1-(pyridin-3-yl)indolin-2-one], 5.75; under `Cc1ncc(-c2ccc3c(c2)N(c2cc(C)n(C)n2)C(=O)C3(C)C)cn1` [Example 5, 1-(1,5-Dimethyl-1H-pyrazol-3-yl)-3,3-dimethyl-6-(2-methylpyrimidin-5-yl)indolin-2-one], 5.98.
`Cc1cc(N2C(=O)C(C)(C)c3ccc(-c4cnc(C)nc4)cc32)ccn1` [Example 6, 3,3-Dimethyl-1-(2-methylpyridin-4-yl)-6-(2-methylpyrimidin-5-yl)indolin-2-one] gave a pIC50 of 5.67.
Then `Cc1cc(N2C(=O)C(C)(C)c3ccc(-c4cnc(C)nc4)cc32)ncn1` [Example 7, 3,3-Dimethyl-1-(6-methylpyrimidin-4-yl)-6-(2-methylpyrimidin-5-yl)indolin-2-one], with 5.81; and `Cc1ncc(-c2ccc3c(c2)N(c2cncnc2)C(=O)C3(C)C)cn1` [Example 8, 3,3-Dimethyl-6-(2-methylpyrimidin-5-yl)-1-(pyrimidin-5-yl)indolin-2-one], with 5.41.
Under `Cc1ccc(-c2ccc3c(c2)N(c2cn(C)cn2)C(=O)C3(C)C)cn1` [Example 10, 3,3-Dimethyl-1-(1-methyl-1H-imidazol-4-yl)-6-(6-methylpyridin-3-yl)indolin-2-one] stands 5.23.
As to `Cc1cc(-c2ccc3c(c2)N(c2cn(C)cn2)C(=O)C3(C)C)ccn1` [Example 11, 3,3-Dimethyl-1-(1-methyl-1H-imidazol-4-yl)-6-(2-methylpyridin-4-yl)indolin-2-one], the pIC50 was 5.15.
The compound `Cc1ccc(N2C(=O)C(C)(C)c3ccc(-c4cnc(C)nc4)cc32)cn1` [Example 12, 3,3-Dimethyl-1-(6-methylpyridin-3-yl)-6-(2-methylpyrimidin-5-yl)indolin-2-one] gave a pIC50 of 6.83.
Under `Cc1ccc(-c2ccc3c(c2)N(c2ccn(C)n2)C(=O)C3(C)C)cn1` [Example 13, 3,3-Dimethyl-1-(1-methyl-1H-pyrazol-3-yl)-6-(6-methylpyridin-3-yl)indolin-2-one] stands 5.94; under `Cc1ccc(-c2ccc3c(c2)N(c2ccnc(C)c2)C(=O)C3(C)C)cn1` [Example 19, 3,3-Dimethyl-6-(6-methylpyridin-3-yl)-1-(2-methylpyridin-4-yl)indolin-2-one], 5.46; under `Cc1cc(-c2ccc3c(c2)N(c2ccnc(C)c2)C(=O)C3(C)C)ccn1` [Example 20, 3,3-Dimethyl-1,6-bis(2-methylpyridin-4-yl)indolin-2-one], 5.25.
Then `Cc1cc(N2C(=O)C(C)(C)c3ccc(-n4cnc(C5CC5)c4)cc32)ccn1` [Example 21, 6-(4-Cyclopropylimidazol-1-yl)-3,3-dimethyl-1-(2-methyl-4-pyridyl)indolin-2-one], with 5.40; and `Cc1cc(N2C(=O)C(C)(C)c3ccc(-c4cnccc4F)cc32)ccn1` [Example 24, 6-(4-Fluoropyridin-3-yl)-3,3-dimethyl-1-(2-methylpyridin-4-yl)indolin-2-one], with 5.06.
Then `Cc1ncc(-c2ccc3c(c2)N(c2ccc(C)s2)C(=O)C3(C)C)cn1` [Example 27, 3,3-Dimethyl-6-(2-methylpyrimidin-5-yl)-1-(5-methylthiophen-2-yl)indolin-2-one], with 6.45; and `Cc1ncc(-c2ccc3c(c2)N(c2ccc(C#N)nc2)C(=O)C3(C)C)cn1` [Example 30, 5-(3,3-Dimethyl-6-(2-methylpyrimidin-5-yl)-2-oxoindolin-1-yl)picolinonitrile], with 5.67.
Compound `Cc1ncc(-c2ccc3c(c2)N(c2ccc(CO)nc2)C(=O)C3(C)C)cn1` [Example 31, 1-(6-(Hydroxymethyl)pyridin-3-yl)-3,3-dimethyl-6-(2-methylpyrimidin-5-yl)indolin-2-one] showed a pIC50 of 6.77.
Then `Cc1ncc(-c2ccc3c(c2)N(c2ccc(C4CC4)nc2)C(=O)C3(C)C)cn1` [Example 32, 1-(6-Cyclopropylpyridin-3-yl)-3,3-dimethyl-6-(2-methylpyrimidin-5-yl)indolin-2-one], with 7.23; and `Cc1ccc(N2C(=O)C(C)(C)c3ccc(-n4cnc(C(C)C)c4)cc32)cn1` [Example 33, 6-(4-Isopropylimidazol-1-yl)-3,3-dimethyl-1-(6-methyl-3-pyridyl)indolin-2-one], with 5.91; and `Cc1cc(N2C(=O)C(C)(C)c3ccc(-n4cnc(C(C)C)c4)cc32)ccn1` [Example 36, 6-(4-Isopropylimidazol-1-yl)-3,3-dimethyl-1-(2-methyl-4-pyridyl)indolin-2-one], with 5.61.
In turn, `Cc1ncc(N2C(=O)C(C)(C)c3ccc(-n4cnc(C(C)C)c4)cc32)cn1` [Example 38, 6-(4-Isopropylimidazol-1-yl)-3,3-dimethyl-1-(2-methylpyrimidin-5-yl)indolin-2-one] showed a pIC50 of 6.37.
Then `Cc1ncc(-c2ccc3c(c2)N(c2ccccn2)C(=O)C3(C)C)cn1` [Example 44, 3,3-Dimethyl-6-(2-methylpyrimidin-5-yl)-1-(pyridin-2-yl)indolin-2-one], with 5.85; and `Cc1ncc(-c2ccc3c(c2)N(c2ccncc2F)C(=O)C3(C)C)cn1` [Example 46, 1-(3-Fluoropyridin-4-yl)-3,3-dimethyl-6-(2-methylpyrimidin-5-yl)indolin-2-one], with 5.45; and `Cc1ncc(-c2ccc3c(c2)N(c2cc(F)ncc2C)C(=O)C3(C)C)cn1` [Example 47, 1-(2-Fluoro-5-methylpyridin-4-yl)-3,3-dimethyl-6-(2-methylpyrimidin-5-yl)indolin-2-one], with 5.14.
Under `Cc1ncc(-c2ccc3c(c2)N(c2nnc(C)o2)C(=O)C3(C)C)cn1` [Example 51, 3,3-Dimethyl-1-(5-methyl-1,3,4-oxadiazol-2-yl)-6-(2-methylpyrimidin-5-yl)indolin-2-one] stands 5.73; under `Cc1ncc(-c2ccc3c(c2)N(c2ccncc2Cl)C(=O)C3(C)C)cn1` [Example 52, 1-(3-Chloropyridin-4-yl)-3,3-dimethyl-6-(2-methylpyrimidin-5-yl)indolin-2-one], 5.16; under `Cc1ncc(-c2ccc3c(c2)N(c2cc[nH]n2)C(=O)C3(C)C)cn1` [Example 55, 3,3-Dimethyl-6-(2-methylpyrimidin-5-yl)-1-(1H-pyrazol-3-yl)indolin-2-one], 5.62.
Then `Cc1ccc(N2C(=O)C(C)(C)c3ccc(-c4cnc(C)nc4)cc32)nc1` [Example 56, 3,3-Dimethyl-1-(5-methylpyridin-2-yl)-6-(2-methylpyrimidin-5-yl)indolin-2-one], with 6.50.
